Data published in patent US8008319B2, “Treatment of colorectal polyps with imidazoquinoline derivatives” (Meda Pharma GmbH & Co. KG, priority 2008, dated 2011).

Key:
[1] = system: p53 expression in Caco-2 cells; assay: p53 mRNA expression in Caco-2 cells by quantitative real-time RT-PCR; assay type: cell-based
Procedure: Imiquimod was dissolved in dimethyl sulfoxide (DMSO). Stock concentration was 10 mg/ml. From these stocks stepwise dilutions were prepared. […] The final concentration of DMSO was 0.1%.
The colorectal adenocarcinoma cell line Caco-2 was obtained from ATCC [American Type Culture Collection], Wesel, Germany. The cells were plated in 24-well plates (BD Bioscience, Heidelberg, Germany). The cells were cultured in DMEM supplemented with 10% heat-inactivated foetal bovine serum and 10% non essential amino acids in a humidified atmosphere containing 5% CO2 at 37° C. When confluent, the cells were washed and resuspended in serum-free Dulbecco's Modified Eagle Medium (DMEM) at 10^6 cells ml^−1. […]
RNA was prepared from frozen lysates using RNeasy, Qiagen (Hilden, Germany). One-tube Reverse Transcriptase-Polymerase Chain Reaction (RT-PCR) was performed using Quantitect Probe RT-PCR Kit from QIAGEN (Hilden, Germany). Expression of p53 was determined in relation to beta-actin by real time RT-PCR using SYBR Green assays on an ABI Prism 7900. […] Quantity of mRNA was calculated using […] method. For each RT-PCR the threshold cycle (CT) was determined, being defined as the cycle at which the fluorescence exceeds 10 times the standard deviation of the mean baseline emission for cycles 3 to 10. β-actin was used as a housekeeping gene to normalize mRNA levels: Ct (Parameter)−Ct (β-actin)=ΔCt (Parameter). […]

MC-26 colon carcinoma = conditions: mice; oral treatment; cited from earlier work
p53 = conditions: patients with Actinic Keratoses; under imiquimod therapy; cited from earlier work

## CC(C)Cn1cnc2c(N)nc3ccccc3c21 [imiquimod, 1-(2-methylpropyl)-1H-imidazo[4,5-c]quinolin-4-amine]
[1]; 10 and 100 μM imiquimod, one-way ANOVA with Dunnett's post-hoc
  statistical significance of increase in p53 mRNA levels: reached statistical significance
[1]; concentrations up to 100 μM, FIG. 1
  p53 mRNA expression (relative to beta-actin and vehicle control): increases p53 mRNA expression dose dependently
MC-26 colon carcinoma
  development of MC-26 colon carcinoma: significantly inhibited the development of MC-26 colon carcinoma
p53
  gene expression for p53: no differences in gene expression for p53 were found
